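Step 1: Grow cells in 96-well plates. Step 2: Expose to compound for 48 hours at 5 concentrations. Step 3: Interpolate endpoints linearly; if unreached, use highest concentration. GI50: concentration for 50% inhibition of growth.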 Activity calls are given as the source filed them. No stated cut-off is given here; in the data, active = GI50 up to about 1.1 µM and inactive = higher. A value given as a limit tells only on which side of the number the result lay.

Test systems include UACC-62; UACC-257; CAKI-1; HOP-62; A498; HL-60; SK-OV-3; DLD-1; NCI-H460; UO-31; SW-620; HCT-15; SF-268; OVCAR-3; A549; Malme-3M; MCF7; BT-549; MDA-N; DU-145.
What all share (test): NCI anticancer screen, dose series, 48 h

As to `Cc1nc2c(o1)/C(=N\c1ccccc1)c1ccccc1C2=O`, the GI50 in the test on UACC-62 was 3.37 µM (inactive); with UACC-257, 5.97 µM (inactive); with CAKI-1, 18.4 µM (inactive); with HOP-62, 13.5 µM (inactive); in the test on A498, 34.1 µM (inactive); in the test with HL-60, 3.3 µM (inactive). In addition, the GI50 in the test with SK-OV-3 is 14.8 µM (inactive); in the test with DLD-1, 12.9 µM (inactive); with NCI-H460, 12.6 µM (inactive); in the test with UO-31, 7.89 µM (inactive); in the test with SW-620 it was 10.7 µM (inactive); in the test on HCT-15 it was 8.11 µM. Further, the GI50 with SF-268 is 7.83 µM (inactive); with OVCAR-3, 2.54 µM (inactive); in the test on A549, 20.3 µM (inactive); in the test on Malme-3M, 3.98 µM (inactive).
For the molecule `O=C1C=C[C@@]23CC1C(O)C[C@H]2C=Cc1ccccc13` (stereo partly specified), the GI50 was 34.8 µM (inactive) in the test on UACC-62; > 100 µM (inactive) in the test on UACC-257; > 100 µM (inactive) with CAKI-1; > 100 µM (inactive) in the test on HOP-62; > 100 µM (inactive) with A498; > 100 µM (inactive) in the test with HL-60. Besides, the GI50 with SK-OV-3 is > 100 µM (inactive); with DLD-1, 45.6 µM (inactive); with NCI-H460 it was > 100 µM (inactive); in the test with UO-31, > 100 µM (inactive); in the test with SW-620 it was > 100 µM (inactive); with HCT-15, 82.2 µM. The GI50 with SF-268, in the test with OVCAR-3, with A549 and in the test on Malme-3M was > 100 µM (inactive) in each case.
Take `O=C1c2ccccc2C(=O)C1(Cl)C1(S(=O)(=O)O)c2ccccc2-c2ccccc21`: the GI50 in the test on UACC-62, with UACC-257, with CAKI-1, in the test with HOP-62, in the test on A498 and in the test with HL-60 was > 100 µM (inactive) each time. The GI50 with SK-OV-3 is > 100 µM (inactive); in the test with DLD-1 it was > 100 µM (inactive); with NCI-H460, > 100 µM (inactive); with UO-31, > 100 µM (inactive); in the test on SW-620, > 100 µM (inactive); in the test on HCT-15 it was > 100 µM. The GI50 in the test with SF-268, with OVCAR-3, in the test with A549 and with Malme-3M was > 100 µM (inactive) each time.
In the case of `COc1ccc2nc3cc(Cl)ccc3c(NCCCN(CCCl)CCCl)c2c1`, the GI50 with MCF7 is < 0.01 µM (active); in the test with BT-549, 0.129 µM (active); in the test on MDA-N, 0.0318 µM (active); in the test with UACC-62 it was 0.0156 µM (active); in the test on UACC-257, 0.122 µM (active); in the test on CAKI-1, < 0.01 µM (active). The GI50 is 0.0301 µM (active) in the test on HOP-62; 0.0163 µM (active) with A498; < 0.01 µM (active) in the test on HL-60; 0.0484 µM (active) in the test with SK-OV-3; 0.233 µM (active) in the test with DLD-1; < 0.01 µM (active) with NCI-H460. Also, the GI50 in the test with UO-31 was 0.0472 µM (active); in the test on SW-620, 0.0116 µM (active); in the test with DU-145 it was 0.0121 µM (active); in the test with HCT-15, 0.0253 µM; in the test with SF-268 it was 0.0164 µM (active); in the test with OVCAR-3, 0.0432 µM (active). Moreover, the GI50 was < 0.0122 µM (active) in the test on A549 and 0.0841 µM (active) in the test with Malme-3M.
In the case of `COc1ccc(-c2cnoc2-c2ccc(OC)c(OC)c2)cc1OC`, the GI50 was 0.406 µM (active) in the test with UACC-62; 5.53 µM (inactive) with UACC-257; 2.35 µM (inactive) in the test on CAKI-1; 1.1 µM (active) with HOP-62; 1.6 µM (inactive) in the test on A498; 0.313 µM (active) with HL-60. For the same molecule, the GI50 with SK-OV-3 was 1.47 µM (inactive); with DLD-1, 2.12 µM (inactive); in the test with NCI-H460, 2.48 µM (inactive); with UO-31, 4.46 µM (inactive); in the test on SW-620 it was 0.414 µM (active); with HCT-15, 0.4 µM. The GI50 was 2.32 µM (inactive) in the test with SF-268, 1.31 µM (inactive) with OVCAR-3, 3.02 µM (inactive) in the test on A549 and 2.15 µM (inactive) in the test with Malme-3M.
Consider `O=C(/C=C(\O)C(=O)O)/C=C(\O)c1ccc(Cl)cc1`, for which the GI50 in the test on UACC-62, in the test on UACC-257, with CAKI-1, in the test on HOP-62, in the test on A498 and in the test on HL-60 was > 100 µM (inactive) each time. Further, the GI50 with SK-OV-3 is > 100 µM (inactive); in the test with DLD-1 it was > 100 µM (inactive); in the test with NCI-H460, > 100 µM (inactive); with UO-31, > 100 µM (inactive); in the test with SW-620, > 100 µM (inactive); with HCT-15, > 100 µM. The GI50 with SF-268, in the test on OVCAR-3, with A549 and in the test with Malme-3M was > 100 µM (inactive) in each case.
Turning to `CCc1cc(C(=O)OC)cn1C(=N)c1ccc(Cl)cc1`, the GI50 in the test on UACC-62, in the test with UACC-257, in the test on CAKI-1, in the test on HOP-62, with A498 and with HL-60 was > 100 µM (inactive) in each case. The GI50 in the test on SK-OV-3 is > 100 µM (inactive); with DLD-1, > 100 µM (inactive); with NCI-H460, > 100 µM (inactive); with UO-31, > 100 µM (inactive); with SW-620 it was > 100 µM (inactive); in the test with HCT-15 it was > 100 µM. The GI50 with SF-268, in the test on OVCAR-3, with A549 and with Malme-3M was > 100 µM (inactive) in each case.
For the molecule `O=C1c2c(O)cccc2C(C(=O)CCCCCC(=O)C2c3cccc(O)c3C(=O)c3c(O)cccc32)c2cccc(O)c21`, the GI50 is 1.12 µM (active) with UACC-62; 0.755 µM (active) in the test with UACC-257; 4.5 µM (inactive) in the test on CAKI-1; 2.88 µM (inactive) in the test on HOP-62; 4.04 µM (inactive) in the test with A498; 1.15 µM (inactive) with HL-60. Moreover, the GI50 with SK-OV-3 was 0.879 µM (active); with DLD-1, 1.12 µM (inactive); in the test on NCI-H460 it was 0.586 µM (active); in the test on UO-31 it was 1.15 µM (inactive); with SW-620, 1.09 µM (active); in the test with HCT-15, 1 µM. For the same molecule, the GI50 in the test with SF-268 is 1.04 µM (active); in the test on OVCAR-3, 0.938 µM (active); in the test on A549 it was 1.03 µM (active); in the test on Malme-3M, 2.39 µM (inactive).
With `CC1=Nc2ccccc2NC(c2ccoc2)C1` (stereo unspecified), the GI50 with UACC-62, with UACC-257, with CAKI-1, in the test with HOP-62, in the test with A498 and in the test on HL-60 was > 100 µM (inactive) each time. Also, the GI50 is > 100 µM (inactive) with SK-OV-3; > 100 µM (inactive) in the test on DLD-1; > 100 µM (inactive) in the test on NCI-H460; > 100 µM (inactive) in the test with UO-31; > 100 µM (inactive) with SW-620; > 100 µM in the test on HCT-15. The GI50 with SF-268, with OVCAR-3, in the test on A549 and in the test with Malme-3M was > 100 µM (inactive) throughout.
For `CCCCCCCCOCC(COC(=O)CCCCCCC)OC(=O)CCCCCCC` (stereo unspecified), the GI50 with UACC-62, in the test on UACC-257, in the test with CAKI-1, with HOP-62, in the test with A498 and with HL-60 was > 100 µM (inactive) throughout. Also, the GI50 with SK-OV-3 is > 100 µM (inactive); with DLD-1, > 100 µM (inactive); in the test on NCI-H460, > 100 µM (inactive); with UO-31, > 100 µM (inactive); in the test with SW-620, > 100 µM (inactive); in the test with HCT-15 it was > 100 µM. In addition, the GI50 in the test on SF-268, in the test on OVCAR-3, in the test on A549 and in the test with Malme-3M was > 100 µM (inactive) throughout.
With `Cc1cc(N(CCC#N)CCC#N)ccc1/N=N/c1ccc(Br)cc1`, the GI50 with UACC-62 was 9.31 µM (inactive); in the test with UACC-257 it was > 100 µM (inactive); in the test with CAKI-1, 16.4 µM (inactive); in the test on HOP-62, 6.41 µM (inactive); in the test on A498 it was 13.7 µM (inactive); in the test with HL-60 it was > 100 µM (inactive). The GI50 with SK-OV-3 is 2.64 µM (inactive); in the test with DLD-1, > 42.7 µM (inactive); with NCI-H460, > 100 µM (inactive); with UO-31, 27.7 µM (inactive); in the test with SW-620, > 48.6 µM (inactive); in the test with HCT-15, 5.56 µM. Further, the GI50 in the test with SF-268 was 22.3 µM (inactive); with OVCAR-3, > 44.2 µM (inactive); in the test with A549 it was 15.1 µM (inactive); in the test with Malme-3M, 53.6 µM (inactive).
Turning to `COC1=C2C[C@H](O)C(C)C[C@@]2(OC)OC1=O` (stereo partly specified), the GI50 in the test with UACC-62, in the test on UACC-257, with CAKI-1, in the test on HOP-62, in the test with A498 and in the test on HL-60 was > 100 µM (inactive) each time. Also, the GI50 in the test on SK-OV-3 was > 100 µM (inactive); in the test with DLD-1, > 100 µM (inactive); in the test on NCI-H460 it was > 100 µM (inactive); in the test with UO-31, > 100 µM (inactive); with SW-620, > 100 µM (inactive); in the test on HCT-15, > 100 µM. The GI50 in the test with SF-268, in the test with OVCAR-3, in the test on A549 and in the test with Malme-3M was > 100 µM (inactive) in each case.
